# Measured values published in patent publication EP3390415B1, “(R)- AND (S)-1-(3-(3-N,N-DIMETHYLAMINOCARBONYL)PHENOXYL-4-NITROPHENYL)-1-ETHYL-N,N'-BIS (ETHYLENE)PHOSPHORAMIDATE, COMPOSITIONS AND METHODS FOR THEIR USE AND PREPARATION” (OBI PHARMA, INC., priority 2015, dated 2017).
# Where two headings read alike, the source gives them in different places.
# Columns and labels:
# H460 cells = test: In vitro proliferation assay, H460; format: cell-based; settings: Homo sapiens, NCI-H460; 2 hrs exposure, wash, additional 70hrs, AlamarBlue; read-out: IC 50 in proliferation assay in H460 cells
# Method: In vitro proliferation data on the H460 […] human tumor cell line is reported above in the compound table. IC50 values are reported in micromolar and result from exposure of compound at various concentrations for 2 hrs followed by a wash step and addition of fresh media followed by growth and cell viability staining and comparison to a media only treated control.
# Specifically, exponentially growing cells were seeded at a density of 4 x 10^3 cells per well in a 96 well plate and incubated at 37°C in 5% CO2, 95% air and 100% relative humidity for 24 hours prior to addition of test compounds. Compounds were solubilized in 100% DMSO at 200 times the desired final test concentration. At the time of drug addition, compounds were further diluted to 4 times the desired final concentration with complete medium. Aliquots of 50 µl of compound at specified concentrations were added to microtiter wells already containing 150 µl of medium, resulting in the final drug concentration reported. After drug addition, the plates were incubated for an additional 2 hours at 37°C, 5% CO2, 95% air, and 100% relative humidity, then the drug was washed off and fresh medium was added and the plates were incubated for addition 70hrs at 37 °C, 5% CO2, 95% air and 100% relative humidity. At the end of this incubation, the viable cells were quantified using the AlamarBlue assay. The drug concentration resulting in growth inhibition of 50% (IC50) was calculated using Prism software (Irvine, CA), and the results were listed in the table.
# HepG2 = test: In vitro human tumor cell line cytotoxicity assay; format: cell-based; settings: for IC50: Homo sapiens
# C3A = test: In vitro human tumor cell line cytotoxicity assay; format: cell-based; settings: for IC50: Homo sapiens
# HCCC9810 = test: In vitro human tumor cell line cytotoxicity assay; format: cell-based; settings: for IC50: Homo sapiens
# PLCPRF5 = test: In vitro human tumor cell line cytotoxicity assay; format: cell-based; settings: for IC50: Homo sapiens
# SNU-387 = test: In vitro human tumor cell line cytotoxicity assay; format: cell-based; settings: for IC50: Homo sapiens
# LIXC012 = test: In vitro human tumor cell line cytotoxicity assay; format: cell-based; settings: for IC50: Homo sapiens
# Vcap = test: In vitro human tumor cell line cytotoxicity assay; format: cell-based; settings: for IC50: Homo sapiens, VCaP
# [1] = Pharmacokinetics (TK) after 30-min IV infusion in monkeys; format: in vivo, Cynomolgus monkeys; settings: 2 mg/kg 30-min IV infusion; for MRT inf / clearance / half-life / Vd / concentration at 0.25 hr / concentration at 0.5 hr / concentration at 0.75 hr / concentration at 1 hr / concentration at 2 hr: cynomolgus monkey, plasma; for half-life: read-out: Terminal t1/2 (converted); for Vd: read-out: Vss
# Method: (§1) TH 3423 and TH 3424 were tested in no naive monkeys (1 male and one female for each compound at 2 mg/kg) with 30-min intravenous infusion, TK sampling: on Day 1 and Day 15: 0.25, 0.5, 0.75, 1 and 2 hr post infusion initiation. Serum chemistry and hematology: pre-dose (Day 1), day 5, day 8 (pre-dose), day 15 (pre-dose), day 22 and day 28. Clinical observation: Daily during the study, total 35 days. Food consumption: Daily during the study, total 35 days. Bodyweight measurement: Twice weekly for five weeks.
# [2] = Acute toxicity study in monkeys, body weight; format: in vivo, Cynomolgus monkeys; parameters: unit not given here; settings: 2 mg/kg IV infusion
# Method: as §1
# Recombinant human AKR1C3 = Recombinant human AKR1C3 (Homo sapiens, UniProt P42330); test: Activation by the aldoketo reductase AKR1C3; format: biochemical; settings: 5 µM, 2 mM NADPH, 37 °C, up to 120 min; FIG. 2
# Sequence of Recombinant human AKR1C3 (P42330 whole entry): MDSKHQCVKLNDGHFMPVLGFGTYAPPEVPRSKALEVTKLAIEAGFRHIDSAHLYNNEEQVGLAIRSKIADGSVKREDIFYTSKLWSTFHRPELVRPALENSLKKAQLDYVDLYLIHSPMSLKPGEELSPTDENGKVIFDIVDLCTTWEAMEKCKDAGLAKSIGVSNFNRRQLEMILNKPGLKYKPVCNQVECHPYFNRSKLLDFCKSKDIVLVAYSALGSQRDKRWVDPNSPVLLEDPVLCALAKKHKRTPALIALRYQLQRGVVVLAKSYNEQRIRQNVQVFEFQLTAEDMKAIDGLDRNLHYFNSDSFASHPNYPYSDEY
# Method: Recombinant human AKR1C3 was diluted to 25 µg/mL in phosphate buffered saline (PBS), pH 7.4 (37 °C), containing 2 mM NADPH. TH2870 or progesterone (positive control) in 30% methanol/70% water was added to the reaction mixture at a final concentration of 5 µM and incubated at 37 °C for 120 minutes. At various times up to 120 min, 50 µL of the reaction mixture was taken and 200 µL acetonitrile containing propranolol as internal standard was added, vortex-mixed and centrifuged for 10 min. The resulting supernatant (5 µL) was injected into a LC/MS/MS for quantitation of % remaining TH 2870 and progesterone. The compounds were tested in duplicates.
# [3] = both sexes, mean, read-out: Plasma concentration, Mean
# [4] = female, read-out: Plasma concentration
# [5] = male, read-out: Plasma concentration
smiles,measurement,setting,value
"C[C@@H](OP(=O)(N1CC1)N1CC1)c1ccc([N+](=O)[O-])c(Oc2cccc(C(=O)N(C)C)c2)c1 (single isomer, unassigned) [TH3423]",IC50,H460 cells,5 nM
same,Max Inhibition%,HepG2,99.5%
same,Min Inhibition%,HepG2,-7.2%
same,IC50,HepG2; read-out: AbsIC50,18.7 nM
same,IC50,HepG2; read-out: RelIC50,13.1 nM
same,Max Inhibition%,C3A,98.5%
same,Min Inhibition%,C3A,5.4%
same,IC50,C3A; read-out: AbsIC50,11.7 nM
same,IC50,C3A; read-out: RelIC50,9.6 nM
same,Max Inhibition%,HCCC9810,93.7%
same,Min Inhibition%,HCCC9810,0.0%
same,IC50,HCCC9810; read-out: AbsIC50,18.7 nM
same,IC50,HCCC9810; read-out: RelIC50,16.8 nM
same,Max Inhibition%,PLCPRF5,77.7%
same,Min Inhibition%,PLCPRF5,-4.9%
same,IC50,"PLCPRF5; PLC-PRF-5, read-out: AbsIC50",207 nM
same,IC50,"PLCPRF5; PLC-PRF-5, read-out: RelIC50",156 nM
same,Max Inhibition%,SNU-387,99.8%
same,Min Inhibition%,SNU-387,1.3%
same,IC50,SNU-387; read-out: AbsIC50,39.7 nM
same,IC50,SNU-387; read-out: RelIC50,46.3 nM
same,Max Inhibition%,LIXC012,84.8%
same,Min Inhibition%,LIXC012,-1.1%
same,IC50,LIXC012; read-out: AbsIC50,16.9 nM
same,IC50,LIXC012; read-out: RelIC50,8.1 nM
same,IC50,Vcap; read-out: AbsIC50,21.6 nM
same,IC50,Vcap; read-out: RelIC50,26.6 nM
same,Max Inhibition%,Vcap; Vcap,101.0%
same,Min Inhibition%,Vcap; Vcap,1.1%
same,AUCINF,[1]; Mean,770 hr^∗ng/mL
same,AUClast,[1]; Mean,766 hr^∗ng/mL
same,MRT inf,"[1]; both sexes, Mean",12.2 min
same,clearance,"[1]; both sexes, Mean",43.3 mL/min/kg
same,half-life,"[1]; both sexes, Mean",7.74 min
same,Vd,"[1]; both sexes, Mean",0.527 L/kg
same,concentration at 0.25 hr,[1]; [3],1210 ng/mL
same,concentration at 0.5 hr,[1]; [3],1400 ng/mL
same,concentration at 0.75 hr,[1]; [3],336 ng/mL
same,concentration at 1 hr,[1]; [3],70 ng/mL
same,concentration at 2 hr,"[1]; both sexes, mean, 2 hr, read-out: Plasma concentration, Mean",1.03 ng/mL
same,concentration at 0.25 hr,[1]; [4],1320 ng/mL
same,concentration at 0.5 hr,[1]; [4],1370 ng/mL
same,concentration at 0.75 hr,[1]; [4],313 ng/mL
same,concentration at 1 hr,[1]; [4],55 ng/mL
same,MRT inf,[1]; female,10.8 min
same,clearance,[1]; female,43.5 mL/min/kg
same,half-life,[1]; female,6.48 min
same,Vd,[1]; female,0.469 L/kg
same,concentration at 0.25 hr,[1]; [5],1100 ng/mL
same,concentration at 0.5 hr,[1]; [5],1420 ng/mL
same,concentration at 0.75 hr,[1]; [5],359 ng/mL
same,concentration at 1 hr,[1]; [5],85 ng/mL
same,concentration at 2 hr,"[1]; male, 2 hr, read-out: Plasma concentration",1.03 ng/mL
same,MRT inf,[1]; male,13.6 min
same,clearance,[1]; male,43.2 mL/min/kg
same,half-life,[1]; male,9 min
same,Vd,[1]; male,0.584 L/kg
same,Plasma concentration,"[1]; female, 2 hr",BQL
same,AUCINF,[1]; female,766 hr^∗ng/mL
same,AUClast,[1]; female,758 hr^∗ng/mL
same,AUCINF,[1]; male,774 hr^∗ng/mL
same,AUClast,[1]; male,773 hr^∗ng/mL
same,body weight,"[2]; Mean, Day 1",3.50
same,body weight,"[2]; Mean, Day 4",3.39
same,body weight,"[2]; Mean, Day 8",3.32
same,body weight,"[2]; Mean, Day 11",2.96
same,body weight,"[2]; female, Day 1",3.65
same,body weight,"[2]; female, Day 4",3.55
same,body weight,"[2]; female, Day 8",3.41
same,body weight,"[2]; female, Day 11",2.96
same,body weight,"[2]; male, Day 1",3.35
same,body weight,"[2]; male, Day 4",3.23
same,body weight,"[2]; male, Day 8",3.23
same,body weight,"[2]; male, Day 11",2.95
"CC(=O)[C@H]1CC[C@H]2[C@@H]3CCC4=CC(=O)CC[C@]4(C)[C@H]3CC[C@]12C [Progesterone, reference compound]",disappearance of compound (% remaining) in the presence of AKR1C3,Recombinant human AKR1C3,reduced slowly
